Where two headings read alike, the source gives them in different places.
Legend:
Assay type in all cases: in vivo
Zea mays (ZEAMX) [1] = details: for Post-emergence action against ZEAMX in %: crop plant compatibility, 80 g/ha, effect vs untreated controls
Procedure, shortened: (§1)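 Effects were read visually as % versus untreated controls (0% = no effect, 100% = death) about 3 weeks post-treatment. Application was a post-emergence spray at the one-leaf stage of WP/EC formulations with 0.5% additive at 600 l/ha. Different dosages are denoted a, b and c.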

Oryza sativa (ORYSA) = details: crop plant compatibility
Procedure, shortened: as §1

[2] = test system: Verconica persica (VERPE); assay: Pre-emergence herbicidal action against VERPE; details: dosage 320 g/ha
Procedure, shortened: (§2)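 Seeds sown in pots and covered with soil; WP or EC formulations sprayed onto the soil surface at 600 l/ha water with 0.5% additive, at 320 g/ha or lower. Greenhouse growth for about 3 weeks, then visual scoring as % effect against untreated controls (100% = plants dead).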

Avena fatua (AVEFA) [3] = assay: Post-emergence herbicidal action against AVEFA; details: visual rating about 3 weeks after treatment
Procedure, shortened: (§3)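 Rates were 320 g/ha or below, applied as aqueous WP/EC spray with 0.5% additive (600 l/ha) onto one-leaf-stage plants. About 3 weeks later in the greenhouse, damage was scored visually against untreated plants on a 0–100% scale, where 100% means plants died.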

[4] = test system: Matricaria inodora (MATIN); assay: Pre-emergence herbicidal action against MATIN; details: dosage 320 g/ha
Procedure, shortened: as §2

[5] = test system: Digitaria sanguinalis (DIGSA); assay: Post-emergence herbicidal action against DIGSA; details: visual rating about 3 weeks after treatment
Procedure, shortened: as §3

[6] = test system: Pharbitis purpurea (PHBPU); assay: Post-emergence herbicidal action against PHBPU
Procedure, shortened: as §3

Lolium rigidum (LOLRI) [7] = assay: Pre-emergence herbicidal action against LOLRI
Procedure, shortened: as §2

[8] = test system: Echinochloa crus-galli (ECHCG); assay: Post-emergence herbicidal action against ECHCG
Procedure, shortened: as §3

[9] = test system: Amaranthus retroflexus (AMARE); assay: Post-emergence herbicidal action against AMARE
Procedure, shortened: as §3

[10] = test system: Abutilon theophrasti (ABUTH); assay: Post-emergence herbicidal action against ABUTH; details: visual rating about 3 weeks after treatment vs untreated controls (100% = plants have died, 0% = like control plants)
Procedure, shortened: as §3

[11] = test system: Amaranthus retroflexus (AMARE); assay: Pre-emergence herbicidal action against AMARE; details: visual scoring after about 3 weeks vs untreated controls
Procedure, shortened: as §2

Setaria viridis (SETVI) [12] = assay: Pre-emergence herbicidal action against SETVI
Procedure, shortened: as §2

[13] = test system: Polygonum convolvulus (POLCO); assay: Post-emergence herbicidal action against POLCO; details: dosage 320 g/ha
Procedure, shortened: as §3

Viola tricolor (VIOTR) [14] = assay: Pre-emergence herbicidal action against VIOTR
Procedure, shortened: as §2

[15] = test system: Echinochloa crus-galli (ECHCG); assay: Pre-emergence herbicidal action against ECHCG; details: dosage 320 g/ha
Procedure, shortened: as §2

Setaria viridis (SETVI) [16] = assay: Post-emergence herbicidal action against SETVI
Procedure, shortened: as §3

Avena fatua (AVEFA) [17] = assay: Pre-emergence herbicidal action against AVEFA; details: 320 g/ha, visual scoring after about 3 weeks vs untreated controls
Procedure, shortened: as §2

[18] = test system: Matricaria inodora (MATIN); assay: Post-emergence herbicidal action against MATIN; details: dosage 320 g/ha
Procedure, shortened: as §3

[19] = test system: Verconica persica (VERPE); assay: Post-emergence herbicidal action against VERPE
Procedure, shortened: as §3

Viola tricolor (VIOTR) [20] = assay: Post-emergence herbicidal action against VIOTR
Procedure, shortened: as §3

[21] = test system: Alopecurus myosuroides (ALOMY); assay: Post-emergence herbicidal action against ALOMY; details: visual rating about 3 weeks after treatment vs untreated controls (100% = plants have died, 0% = like control plants)
Procedure, shortened: as §3

[22] = test system: Pharbitis purpurea (PHBPU); assay: Pre-emergence herbicidal action against PHBPU; details: dosage 320 g/ha
Procedure, shortened: as §2

[23] = test system: Alopecurus myosuroides (ALOMY); assay: Pre-emergence herbicidal action against ALOMY; details: 320 g/ha; scored visually after about 3 weeks; 100% = plants have died
Procedure, shortened: as §2

[24] = test system: Digitaria sanguinalis (DIGSA); assay: Pre-emergence herbicidal action against DIGSA
Procedure, shortened: as §2

Lolium rigidum (LOLRI) [25] = assay: Post-emergence herbicidal action against LOLRI
Procedure, shortened: as §3

Zea mays (ZEAMX) [26] = details: pre-emergence, 80 g/ha, crop plant compatibility, in comparison to untreated controls
Source text: Seeds of monocotyledonous and dicotyledonous weed plants and crop plants are placed in plastic or organic planting pots and covered with soil. The compounds of the invention, formulated in the form of wettable powders (WP) or as emulsion concentrates (EC), are then applied to the surface of the covering soil as aqueous suspension or emulsion with addition of 0.5% additive at a water application rate equivalent to 600 l/ha. After the treatment, the pots are placed in a greenhouse and kept under good growth conditions for the trial plants. After about 3 weeks, the effect of the preparations is scored visually in comparison with untreated controls as percentages. For example, 100% activity=the plants have died, 0% activity=like control plants.
The observed effects on selected crop plants are reported here in comparison to the untreated controls (values in %). The appendices “a” “b” and “c” give differentiation by dosage used with otherwise the same crop plants tested.

[27] = test system: Polygonum convolvulus (POLCO); assay: Pre-emergence herbicidal action against POLCO; details: dosage 320 g/ha
Procedure, shortened: as §2

[28] = 80 g/ha, effect in comparison to untreated controls
[29] = 320 g/ha, visual rating about 3 weeks after treatment
[30] = 80 g/ha, visual scoring after about 3 weeks vs untreated controls
[31] = 80 g/ha, visual rating about 3 weeks after treatment vs untreated controls (100% = plants have died, 0% = like control plants)

Structure (SMILES) | Post-emergence action against ZEAMX in % (Zea mays (ZEAMX) [1]) [%] | Post-emergence action against ORYSA in % (Oryza sativa (ORYSA); [28]) [%] | Pre-emergence action against VERPE in % [2] [%] | Pre-emergence action against MATIN in % [4] [%] | Post-emergence action against PHBPU in % ([6]; dosage 80 g/ha) [%] | Post-emergence action against PHBPU in % ([6]; dosage 320 g/ha) [%] | Post-emergence action against AMARE in % [9, 29] [%] | Pre-emergence action against AMARE in % ([11]; 320 g/ha) [%] | Pre-emergence action against SETVI in % (Setaria viridis (SETVI) [12]; dosage 320 g/ha) [%] | Post-emergence action against POLCO in % [13] [%] | Pre-emergence action against VIOTR in % (Viola tricolor (VIOTR) [14]; 320 g/ha, Viola tricolor) [%] | Pre-emergence action against VIOTR in % (Viola tricolor (VIOTR) [14]; dosage 80 g/ha) [%] | Pre-emergence action against ECHCG in % [15] [%] | Post-emergence action against SETVI in % (Setaria viridis (SETVI) [16]; dosage 80 g/ha) [%] | Post-emergence action against VERPE in % ([19]; 320 g/ha, VERPE) [%] | Post-emergence action against VIOTR in % (Viola tricolor (VIOTR) [20]; 80 g/ha) [%] | Post-emergence action against VIOTR in % (Viola tricolor (VIOTR) [20]; 320 g/ha) [%] | Post-emergence action against ALOMY in % ([21]; 80 g/ha) [%] | Pre-emergence action against ALOMY [23] [%] | Pre-emergence action against DIGSA in % ([24]; dosage 320 g/ha) [%] | other results
CCOC(=O)COc1nn(-c2nc(F)ccc2F)c(-c2ccc(F)nc2)c1C1CC1 [Example I-348] | 20 | 0 | 90 | 90 | 80 | 80 | 80 | 90 | 100 | 80 | 90 | 80 | 90 | 80 | 80 | 80 | 80 | 80 | 80 | 100 | Post-emergence action against AVEFA in % (Avena fatua (AVEFA) [3]; 80 g/ha): 80%; Post-emergence action against AVEFA in % (Avena fatua (AVEFA) [3]; 320 g/ha): 80%; Post-emergence action against DIGSA in % ([5]; 80 g/ha): 80%; Post-emergence action against DIGSA in % ([5]; 320 g/ha): 90%; Pre-emergence action against LOLRI in % (Lolium rigidum (LOLRI) [7]; dosage 80 g/ha): 90%; Pre-emergence action against LOLRI in % (Lolium rigidum (LOLRI) [7]; dosage 320 g/ha): 100%; Post-emergence action against ECHCG in % ([8]; dosage 80 g/ha): 90%; Post-emergence action against ECHCG in % ([8]; dosage 320 g/ha): 90%; Post-emergence action against ABUTH in % ([10]; 320 g/ha): 80%; Pre-emergence action against SETVI in % (Setaria viridis (SETVI) [12]; dosage 80 g/ha): 80%; Post-emergence action against SETVI in % (Setaria viridis (SETVI) [16]; dosage 320 g/ha): 90%; Pre-emergence action against AVEFA in % (Avena fatua (AVEFA) [17]): 90%; Post-emergence action against MATIN in % [18]: 80%; Post-emergence action against VERPE in % ([19]; dosage 80 g/ha): 80%; Post-emergence action against ALOMY in % ([21]; 320 g/ha): 90%; Pre-emergence action against PHBPU in % [22]: 90%; Pre-emergence action against DIGSA in % [24, 30]: 90%; Post-emergence action against LOLRI in % (Lolium rigidum (LOLRI) [25]; dosage 80 g/ha): 80%; Post-emergence action against LOLRI in % (Lolium rigidum (LOLRI) [25]; dosage 320 g/ha): 80%
O=C(O)COc1nn(-c2ccccn2)c(-c2ccc(Cl)nc2)c1Br [Example I-235] | 20 | 0 | 80 |  | 80 | 80 | 80 | 90 |  | 80 |  |  |  |  | 80 | 80 | 80 |  |  | 90 | Post-emergence action against ORYSA in % (Oryza sativa (ORYSA); 320 g/ha, effect in comparison to untreated controls): 0%; Post-emergence action against AMARE in % [9, 31]: 80%; Pre-emergence action against AMARE in % ([11]; 80 g/ha): 80%; Pre-emergence action against ZEAMX in % (Zea mays (ZEAMX) [26]): 0%
CCOC(=O)CN(C)S(=O)(=O)NC(=O)COc1nn(-c2ncccc2F)c(-c2ccc(F)nc2)c1Br [Example I-54] |  | 0 | 100 | 100 |  |  |  | 100 | 100 |  | 100 | 100 | 100 | 80 |  |  |  | 90 | 100 | 100 | Post-emergence action against ZEAMX in % (crop plant compatibility) (Zea mays (ZEAMX) [1]; 20 g/ha, ZEAMX, effect in comparison to untreated controls): 0%; Post-emergence action against ORYSA in % (Oryza sativa (ORYSA); 20 g/ha, effect vs untreated controls): 0%; Post-emergence action against AMARE in % [9, 31]: 80%; Post-emergence action against ABUTH in % ([10]; 80 g/ha): 80%; Pre-emergence action against POLCO in % [27]: 90%; Pre-emergence action against ZEAMX in % (Zea mays (ZEAMX) [26]): 0%; Pre-emergence action against DIGSA in % [24, 30]: 100%
